The values that follow come from ChEMBL document CHEMBL5038609, “A camptothecin-based, albumin-binding prodrug enhances efficacy and safety in vivo” (Eur J Med Chem, 2021).

Series [1] in a line: Toxicity in mouse 4T1 cells implanted in female BALB/c mouse assessed as pathological changes in lung at 0.6 to 1.2 mg/kg, iv by H and E staining based analysis. The series is classed as organism-based. The following applies: in vivo, dose 0.6-1.2 mg/kg.
A short description of series [2]: Plasma protein binding in male Sprague-Dawley rat measured after 0.25 mins by HPLC analysis. The format is ADME, cell-free. The conditions noted are these: read-out: PPB (converted).
Series [3] can be described thus: Plasma protein binding in human measured after 2 mins by HPLC analysis. The format is ADME, cell-free. The following applies: read-out: PPB (converted).
The test system of series [4] is MCF7. The experiment in a line: Antiproliferative activity against human MCF7 cells assessed as reduction on cell proliferation in presence of beta-glucuronidase measured after 72 hrs by MTT assay. The format is functional, cell-based. In general terms: Formazan colour is commonly taken as a measure of viable cells.
Series [5] has as its system A549. The experiment in a line: Antiproliferative activity against human A549 cells assessed as reduction on cell proliferation measured after 72 hrs by MTT assay. The series is classed as functional, cell-based.
Series [6] concerns HCT-116. The experiment in a line: Antiproliferative activity against human HCT-116 cells assessed as reduction on cell proliferation in presence of beta-glucuronidase measured after 72 hrs by MTT assay. The format is functional, cell-based.
Series [7] is described as follows: Toxicity in mouse 4T1 cells implanted in female BALB/c mouse assessed as pathological changes in liver at 0.6 to 1.2 mg/kg, iv by H and E staining based analysis. The format is organism-based. The conditions noted are these: in vivo, dose 0.6-1.2 mg/kg.
The target in series [8] is T1, albumin (Homo sapiens, UniProt P02768). The experiment in a line: Protein binding in human serum albumin measured after 0.25 mins by HPLC analysis. The series is classed as ADME, cell-free. The conditions noted are these: read-out: PPB (converted).
T1 sequence (P02768 whole entry): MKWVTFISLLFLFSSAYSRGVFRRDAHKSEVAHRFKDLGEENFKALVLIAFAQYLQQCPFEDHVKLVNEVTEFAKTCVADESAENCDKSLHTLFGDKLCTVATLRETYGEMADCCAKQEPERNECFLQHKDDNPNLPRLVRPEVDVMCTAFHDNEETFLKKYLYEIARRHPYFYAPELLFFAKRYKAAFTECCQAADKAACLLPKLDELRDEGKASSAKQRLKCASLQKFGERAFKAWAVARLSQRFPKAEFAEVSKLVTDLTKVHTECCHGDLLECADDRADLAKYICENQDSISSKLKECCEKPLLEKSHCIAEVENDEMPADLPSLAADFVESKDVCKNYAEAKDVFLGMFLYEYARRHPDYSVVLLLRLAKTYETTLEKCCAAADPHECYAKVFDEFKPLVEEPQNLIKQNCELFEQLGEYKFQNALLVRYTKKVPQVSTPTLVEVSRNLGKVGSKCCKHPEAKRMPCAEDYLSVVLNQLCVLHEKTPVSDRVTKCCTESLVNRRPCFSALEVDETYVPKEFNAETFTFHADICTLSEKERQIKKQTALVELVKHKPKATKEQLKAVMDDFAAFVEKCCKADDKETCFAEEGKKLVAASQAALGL
A short description of series [9]: Drug distribution in mouse 4T1 cells implanted in female BALB/c mouse assessed as fold change in tumor at 1.2 mg/kg, iv measured after 24 hrs by fluorescence detector. The series is classed as ADME, organism-based, Neoplasm. The following applies: in vivo.
The subject of series [10] is 4T1. The experiment in a line: Antitumor activity against mouse 4T1 cells implanted in female BALB/c mouse assessed as tumor cell apoptosis at 0.6 to 1.2 mg/kg, iv by TUNEL staining based fluorescence assay. The format is functional, organism-based. The following applies: dose 0.6-1.2 mg/kg.
Series [11] in a line: Drug distribution in mouse 4T1 cells implanted in female BALB/c mouse assessed as fold change in tumor at 1.2 mg/kg, iv measured after 48 hrs by fluorescence detector. The following applies: in vivo. The series is classed as ADME, organism-based, Neoplasm.
Series [12] can be described thus: Plasma protein binding in human measured after 0.25 mins by HPLC analysis. The series is classed as ADME, cell-free. The conditions noted are these: read-out: PPB (converted).
A short description of series [13]: Plasma protein binding in female BALB/c mouse measured after 0.25 mins by HPLC analysis. The format is ADME, cell-free. The conditions noted are these: read-out: PPB (converted).
The subject of series [14] is Mus musculus. The experiment in a line: Antitumor activity against mouse 4T1 cells implanted in female BALB/c mouse assessed as increase in body weight at 0.6 to 1.2 mg/kg, iv administered twice a week for 2 weeks. The series is classed as functional, organism-based. The following applies: dose 0.6-1.2 mg/kg.
Series [15] can be described thus: Toxicity in mouse 4T1 cells implanted in female BALB/c mouse assessed as pathological changes in spleen at 0.6 to 1.2 mg/kg, iv by H and E staining based analysis. The series is classed as organism-based. The conditions noted are these: in vivo, dose 0.6-1.2 mg/kg.
Series [16] can be described thus: Drug distribution in mouse 4T1 cells implanted in female BALB/c mouse assessed as fold change in tumor at 1.2 mg/kg, iv measured after 6 hrs by fluorescence detector. The series is classed as ADME, organism-based, Neoplasm. The conditions noted are these: in vivo.
The subject of series [17] is 4T1. The experiment in a line: Antitumor activity against mouse 4T1 cells implanted in female BALB/c mouse assessed as inhibition of tumor growth at 1.2 mg/kg, iv administered twice a week for 2 weeks measured on day 18. The series is classed as functional. More on the design: scale not given: the % may be the effect or the level left. The conditions noted are these: time 18 day.

Series [18] can be described thus: Toxicity in mouse 4T1 cells implanted in female BALB/c mouse assessed as pathological changes in kidney at 0.6 to 1.2 mg/kg, iv by H and E staining based analysis. The format is organism-based. The following applies: in vivo, dose 0.6-1.2 mg/kg.
Series [19] relates to HepG2. The experiment in a line: Antiproliferative activity against human HepG2 cells assessed as reduction on cell proliferation in presence of beta-glucuronidase measured after 72 hrs by MTT assay. The format is functional, cell-based.
Series [20] in a line: Toxicity in female BALB/c mouse assessed as body weight loss at 1 to 10 mg/kg, iv administered once daily for 14 consecutive days. The following applies: in vivo, 336 h, dose 1-10 mg/kg, time 14 day. The format is organism-based.
The test system of series [21] is 4T1. The experiment in a line: Antitumor activity against mouse 4T1 cells implanted in female BALB/c mouse assessed as inhibition of tumor growth at 0.6 to 1.2 mg/kg, iv by Ki67 staining based assay. The following applies: dose 0.6-1.2 mg/kg. The format is functional, organism-based.
Series [22] concerns 4T1. The experiment in a line: Antitumor activity against mouse 4T1 cells implanted in female BALB/c mouse assessed as reduction on tumor volume at 0.6 to 1.2 mg/kg, iv administered twice a week for 2 weeks. The series is classed as functional, organism-based. The following applies: dose 0.6-1.2 mg/kg.
Series [23] addresses T1, albumin. The experiment in a line: Protein binding in human serum albumin measured after 8 mins by HPLC analysis. The series is classed as ADME, cell-free. The following applies: read-out: PPB (converted).
In series [24] the test system is HepG2. The experiment in a line: Antiproliferative activity against human HepG2 cells assessed as reduction on cell proliferation measured after 72 hrs by MTT assay. The format is functional, cell-based.
The nature of series [25]: Drug distribution in mouse 4T1 cells implanted in female BALB/c mouse assessed as fold change in tumor at 1.2 mg/kg, iv measured after 2 hrs by fluorescence detector. The series is classed as ADME, organism-based, Neoplasm. The following applies: in vivo.
Series [26] deals with MCF7. The experiment in a line: Antiproliferative activity against human MCF7 cells assessed as reduction on cell proliferation measured after 72 hrs by MTT assay. The format is functional, cell-based.
The nature of series [27]: Toxicity in iv dosed female BALB/c mouse assessed as maximum tolerated dose administered once daily for 14 consecutive days. The series is classed as organism-based. The following applies: in vivo, time 14 day.
Series [28] can be described thus: Plasma protein binding in male Sprague-Dawley rat measured after 2 mins by HPLC analysis. The following applies: read-out: PPB (converted). The series is classed as ADME, cell-free.
Series [29] relates to A549. The experiment in a line: Antiproliferative activity against human A549 cells assessed as reduction on cell proliferation in presence of beta-glucuronidase measured after 72 hrs by MTT assay. The series is classed as functional, cell-based.
The nature of series [30]: Toxicity in mouse 4T1 cells implanted in female BALB/c mouse assessed as pathological changes in heart at 0.6 to 1.2 mg/kg, iv by H and E staining based analysis. The series is classed as organism-based. The conditions noted are these: in vivo, dose 0.6-1.2 mg/kg.
The nature of series [31]: Plasma protein binding in female BALB/c mouse measured after 2 mins by HPLC analysis. The following applies: read-out: PPB (converted). The series is classed as ADME, cell-free.
Series [32] has as its system HCT-116. The experiment in a line: Antiproliferative activity against human HCT-116 cells assessed as reduction on cell proliferation measured after 72 hrs by MTT assay. The format is functional, cell-based.
The test system of series [33] is 4T1. The experiment in a line: Antitumor activity against mouse 4T1 cells implanted in female BALB/c mouse assessed as inhibition of tumor growth at 0.6 mg/kg, iv administered twice a week for 2 weeks measured on day 18. The conditions noted are these: time 18 day. The series is classed as functional. Also noted: scale not given: the % may be the effect or the level left.

The test system of series [34] is 4T1. The experiment in a line: Antiproliferative activity against mouse 4T1 cells assessed as reduction on cell proliferation in presence of beta-glucuronidase measured after 72 hrs by MTT assay. The series is classed as functional, cell-based.
Series [35] relates to 4T1. The experiment in a line: Antiproliferative activity against mouse 4T1 cells assessed as reduction on cell proliferation measured after 72 hrs by MTT assay. The format is functional, cell-based.
A short description of series [36]: Drug accumulation in mouse 4T1 cells implanted female BALB/c mouse tumor at 1.2 mg/kg, iv after 6 hrs by fluorescence detector. The format is ADME, organism-based, Neoplasm. The following applies: in vivo.
Series [37] in a line: Drug accumulation in mouse 4T1 cells implanted female BALB/c mouse tumor at 0.5 mg/kg, iv after 2 hrs by fluorescence detector. The series is classed as ADME, organism-based, Neoplasm. The following applies: in vivo.
A short description of series [38]: Drug accumulation in mouse 4T1 cells implanted female BALB/c mouse kidney at 0.5 mg/kg, iv by fluorescence detector. The series is classed as ADME, organism-based. The following applies: in vivo.
The test system of series [39] is 4T1. The experiment in a line: Antitumor activity against mouse 4T1 cells implanted in female BALB/c mouse assessed as reduction on tumor volume at 0.5 mg/kg, iv administered twice a week for 2 weeks. The series is classed as functional, organism-based.
Series [40] relates to 4T1. The experiment in a line: Antitumor activity against mouse 4T1 cells implanted in female BALB/c mouse assessed as inhibition of tumor growth at 0.5 mg/kg, iv administered twice a week for 2 weeks measured on day 18. The series is classed as functional. More on the design: scale not given: the % may be the effect or the level left. The conditions noted are these: time 18 day.

A short description of series [41]: Toxicity in female BALB/c mouse assessed as body weight loss at 0.2 to 1.2 mg/kg, iv administered once daily for 14 consecutive days. The format is organism-based. The conditions noted are these: in vivo, 336 h, dose 0.2-1.2 mg/kg, time 14 day.
A short description of series [42]: Drug accumulation in mouse 4T1 cells implanted female BALB/c mouse lung at 0.5 mg/kg, iv by fluorescence detector. The following applies: in vivo. The series is classed as ADME, organism-based.
Series [43] relates to Mus musculus. The experiment in a line: Antitumor activity against mouse 4T1 cells implanted in female BALB/c mouse assessed as increase in body weight at 0.5 mg/kg, iv administered twice a week for 2 weeks. The format is functional, organism-based.

Calls of active or inactive are those of the source. No cut-off for these calls is given here.

As for `CC[C@@]1(O)C(=O)OCc2c1cc1n(c2=O)Cc2c-1nc1cc3c(cc1c2-c1cc[n+](Cc2ccc(O[C@@H]4O[C@@H](C(=O)O)[C@@H](O)[C@H](O)[C@H]4O)c(NC(=O)CCCn4cc(CNC(=O)CCCCCN5C(=O)C=CC5=O)nn4)c2)cc1)OCO3.O=C([O-])C(F)(F)F`, the Activity result in series [1] was “Non-Toxic”; in [7], “Non-Toxic”; in [15], “Non-Toxic”; in [17], 77%; in series [18] it was “Non-Toxic”; in series [20], 10%. The figures for the Activity entry in [30] and in series [33] were “Non-Toxic” and 56%, respectively. The fraction unbound at 15 s in [2] was 0.0224; in series [8], 0.0679; in series [12] it was 0.034; in [13], 0.0723. Besides, the results for the fraction unbound at 2 min in series [3], in series [28] and in [31] were 0.0291, 0.0188 and 0.0512, respectively. Also, the outcome in series [4], in [5], in series [6], in [10], in series [14] and in [19] was Active. The outcome in [21], in series [22], in series [24], in [26], in series [29] and in series [32] was Active. The result in [34] and in series [35] was Active. In addition, the “fold change (FC)” value in series [9] was 16; in series [11] it was 14; in series [16], 18; in series [25], 9. Besides, the fraction unbound at 8 min in series [23] was 0.015. In addition, the MTD (as a rule, the largest dose that counted as tolerated) at 336 h in series [27] was 2.5 mg/kg. The Drug uptake in [36] came out at 17.34%.
With `CC[C@@]1(O)C(=O)OCc2c1cc1n(c2=O)Cc2c-1nc1cc3c(cc1c2-c1ccncc1)OCO3`, the Drug uptake in series [37] is given as 1.09%; in series [38] it was “Active”; in series [42], “Active”. Further, the result in series [39] and in series [43] was Active. Further, the values for the Activity in series [40] and in series [41] were 27% and 10%, respectively. Moreover, the MTD at 336 h in [27] is 0.4 mg/kg.
